This note sets out measurements from patent publication US7429396B2, “Antifungal composition, its fungicidal effect on pathogenic dermatophytes, and process for inhibiting growth of fungi” (Bio-Botanica, Inc., priority 2003, dated 2008).

For test [1], the system named is E. coli ATCC 25922. The experiment in a line: Agar Dilution susceptibility method (Example 5). Format: cell-based, Escherichia coli. How it is done:
(§1) The Agar Dilution susceptibility method was used to test the effectiveness of the antimicrobial composition of Example 1. The organisms used were S. aureus ATCC 29213, E. coli ATCC 25922, S. typhimurium ATCC 14028, K. pneumoniae ATCC 10031, P. aeruginosa ATCC 27853, C. albicans ATCC 10231, and M. smegmatis ATCC 14468. The organisms were maintained on Tryptic Soy Agar (TSA) slants. For each week, the organisms were cultured in 10 ml of Tryptic Soy Broth (TSB). After incubation at 37° C. for 17 hours (48 hours for M. smegmatis), the organism suspensions were diluted with 10 ml of sterile saline as shown in Table 4. The mold Aspergillus niger was sustained on a Sabouraud Dextrose Agar slant. The sample was then cultured in 10 ml of Tryptic Soy Broth and incubated for 7 days at 22° C. The mold was then diluted in 0.1% Tween 80 in saline. The diluted bacteria and yeast organisms were then inoculated onto the prepared sample plates with a 1 μl loop. The mold Aspergillus niger was added to prepared sample tubes with a 100 μl pipette.
(§2) Phenyloxyethanol (PE), phenylethyl alcohol (PEA) and methyl/propylparabens (MP) in a ratio of 5:4 were initially screened at their commonly recommended effective concentrations of 0.3% v/v (3 μl/ml); 1% v/v (10 μl/ml); and 0.18% w/v (1 mg methyl and 0.8 mg propylparaben/ml), respectively. The antimicrobial agent was used at an initial concentration of 0.15% v/v (1.5 μl/ml).
The sample plates for the bacteria and yeast were prepared as follows: • Prepare 10 ml tubes of TSA and allow to cool to 50° C., • Add the calculated amount of the preservative or antimicrobial agent to 100 μl dimethylsulfoxide (DMSO) to achieve the specified concentration per ml TSA when 100 μl of the DMSO solution are added to a test tube containing 10 ml of TSA, • Vortex to homogenize the mixture in TSA, • Pour TSA and the preservative or antimicrobial agent into a properly labeled Petri dish, • Allow to cool overnight at room temperature.
The prepared sample plates were divided into seven sections and the plates labeled according to the preservative or antimicrobial agent. Each section was labeled according to the microorganism to be applied to each section. The diluted organism suspensions were inoculated onto their appropriate section with a 1 μl loop, streaking radially from the center to the outer edge of the plate. A positive control plate was prepared without a preservative or antimicrobial agent of Example 1. The plates were then incubated at 37° C. for 48 hours, recording the results at 24 and 48 hours.
The results for the bacteria and yeast were scored in relation to the growth present on the positive control plate. Growth (G) was noted when there was full growth visible and the organism was not affected. […]
A general note: In agar dilution the substance is mixed into plates at graded concentrations.

Test [2] relates to Aspergillus niger ATCC 16404. The experiment in a line: Macro-dilution broth susceptibility method (Example 6). Format: cell-based. How it is done:
The mold Aspergillus niger ATCC 16404 was selected for the antifungal testing and maintained on Sabouraud Dextrose Agar. Aspergillus niger is a mold that commonly causes opportunistic infections in humans. Spores are prevalent in soil and on decaying organic matter. Aspergillus niger is also a common cause of contamination in products. The organism was cultured in 10 ml of Tryptic Soy Broth for 7 days at 22° C. After incubation, 1 ml of mold culture was added to 10 ml of 0.1% Tween 80 solution in sterile saline to achieve a spore concentration of 0.5 McFarland (1×10^8 spores/ml). This concentration was determined by visual comparison to a 0.5 McFarland standard. […]
The final concentration of mold spores in each sample was 1×10^4-1×10^5 spores/ml. The prepared tubes of TSB were incubated at 37° C. for 5 days, and the results recorded at 3 and 5 days. […]
The results were scored in relation to the growth present in the negative control tube. […] Partial activity (P) was recorded when the sample tube of TSB was less turbid than the control tube, and now growth (I) was recorded when there was total inhibition and the broth in the tube appeared clear. When a result of (I) was scored, the MIC was established by performing the appropriate dilutions.

The subject of test [3] is all microorganisms tested. The experiment in a line: Agar/broth dilution, inhibition of all microorganisms tested (Example 5). Format: cell-based. How it is done:
as §1, with “The sample was then cultured in 10 ml of Tryptic Soy Broth and incubated for 7 days at 22° C. The mold was then diluted in 0.1% Tween 80 in saline. The diluted bacteria and yeast organisms were then inoculated onto the prepared sample plates with a 1 μl loop. The mold Aspergillus niger was added to prepared sample tubes with a 100 μl pipette.” left out
(§3) The sample plates for the bacteria and yeast were prepared as follows: • Prepare 10 ml tubes of TSA and allow to cool to 50° C., • Add the calculated amount of the preservative or antimicrobial agent to 100 μl dimethylsulfoxide (DMSO) to achieve the specified concentration per ml TSA when 100 μl of the DMSO solution are added to a test tube containing 10 ml of TSA, • Vortex to homogenize the mixture in TSA, • Pour TSA and the preservative or antimicrobial agent into a properly labeled Petri dish, • Allow to cool overnight at room temperature. […]
(§4) The results for the bacteria and yeast were scored in relation to the growth present on the positive control plate. […]
(Broth dilution looks for growth in wells or tubes with falling amounts of substance.)

In test [4] the test system is P. aeruginosa ATCC 27853. The experiment in a line: Agar Dilution susceptibility method (Example 5). Format: cell-based, Pseudomonas aeruginosa. How it is done: as §1, §2, §3, §4

Take `OCCc1ccccc1` [Phenylethyl Alcohol]: the “Minimum Inhibitory Concentration (MIC) (sample/ml of agar or broth)” value in test [1] and in test [4] was 5.0 μl/ml throughout. Further, the growth score entry in test [1] (3.0 μl/ml), in test [1] (5.0 μl/ml), in test [1] (6.0 μl/ml), in test [2] (2.5 μl/ml), in test [4] (5.0 μl/ml) and in test [4] (6.0 μl/ml) was “I” throughout. Moreover, the “Minimum Inhibitory Concentration (MIC)” value in test [2] (macro-dilution broth, Example 6) was determined as 2.5 μl/ml. In addition, in test [3], the “MIC capable of inhibiting all the tested organisms” value was 6.0 μl/ml.
